Test results from US11976072B2, “Diacylglycerol kinase modulating compounds” (priority 2021, dated 2024).

Key:
human DGKα = human DGKα (Homo sapiens, UniProt P23743); assay: DGKα Biochemical Activity Assay (ADP-Glo); conditions: recombinant DGKα 1 nM, 100 μM ATP, 18:1 DAG/POPS/octylglucoside micelles, 1 hour at 25° C.; geometric mean; read-out: HTBS DGKa 1X ATP KM IC50;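 also: luminescent detection of ADP produced as DGKα phosphorylates DAG to phosphatidic acid, IC50 from four-parameter nonlinear curve fit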
human DGKα, sequence (P23743 whole entry): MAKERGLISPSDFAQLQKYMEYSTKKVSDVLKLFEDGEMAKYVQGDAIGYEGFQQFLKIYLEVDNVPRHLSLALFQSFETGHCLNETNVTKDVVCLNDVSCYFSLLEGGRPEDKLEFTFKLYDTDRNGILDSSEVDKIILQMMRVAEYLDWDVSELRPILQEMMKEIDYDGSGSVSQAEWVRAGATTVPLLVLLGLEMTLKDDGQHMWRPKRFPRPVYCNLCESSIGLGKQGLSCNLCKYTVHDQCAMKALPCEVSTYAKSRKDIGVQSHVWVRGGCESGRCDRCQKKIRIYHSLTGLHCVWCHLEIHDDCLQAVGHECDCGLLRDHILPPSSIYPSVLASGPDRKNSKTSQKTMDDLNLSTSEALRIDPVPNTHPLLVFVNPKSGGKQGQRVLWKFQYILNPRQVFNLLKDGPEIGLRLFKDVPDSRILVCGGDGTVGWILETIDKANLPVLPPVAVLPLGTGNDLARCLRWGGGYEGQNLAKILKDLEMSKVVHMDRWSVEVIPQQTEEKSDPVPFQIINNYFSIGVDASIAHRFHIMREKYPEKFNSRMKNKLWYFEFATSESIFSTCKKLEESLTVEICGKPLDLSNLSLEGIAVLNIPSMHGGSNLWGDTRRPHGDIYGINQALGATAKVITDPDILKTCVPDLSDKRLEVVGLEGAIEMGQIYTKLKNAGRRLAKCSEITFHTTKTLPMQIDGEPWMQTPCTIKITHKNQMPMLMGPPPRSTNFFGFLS

[1] = system: Jurkat NFκB-luciferase cells; assay: Jurkat NFκB-Luciferase Assay; assay type: cell-based; conditions: Homo sapiens; Jurkat NFκB-luciferase cells activated with anti-CD3 antibody (OKT3), 2.5 hrs at 37° C.; geometric mean; read-out: DGK NFKb Luciferase EC50
In short: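 Luminescence from One-Glo Ex, read 7 min post-addition, reports NFκB activation in Jurkat luciferase reporter cells. Cells, diluted to 1 million cells/ml in 10% FBS RPMI, were dispensed onto plates holding compound and washed, pre-bound antibody.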

| SMILES | IC50 (human DGKα) | EC50 [1] |
| --- | --- | --- |
| Cc1nnc2nc(N(CC(F)F)c3cc(F)cc(C#CC(C)(C)c4cccnc4)c3)c3c(F)c(F)ccc3n12 [Example 67, N-(2,2-difluoroethyl)-6,7-difluoro-N-(3-fluoro-5-(3-methyl-3-(pyridin-3-yl)but-1-yn-1-yl)phenyl)-1-methyl-[1,2,4]triazolo[4,3-a]quinazolin-5-amine] | 156 nM | 11.6 nM |
| Cc1nnc2nc(N(CC(F)F)c3cc(F)cc(C#CC(C)(C)c4ccccn4)c3)c3c(F)c(F)ccc3n12 [Example 68, N-(2,2-difluoroethyl)-6,7-difluoro-N-(3-fluoro-5-(3-methyl-3-(pyridin-2-yl)but-1-yn-1-yl)phenyl)-1-methyl-[1,2,4]triazolo[4,3-a]quinazolin-5-amine] | 191 nM | 9.68 nM |
| Cc1nnc2nc(N3CCCc4c(C#CC(C)(C)C(=O)N5CCC(F)(F)CC5)cccc43)c3c(F)cccc3n12 [Example 69, 1-(4,4-difluoropiperidin-1-yl)-4-(1-(6-fluoro-1-methyl-[1,2,4]triazolo[4,3-a]quinazolin-5-yl)-1,2,3,4-tetrahydroquinolin-5-yl)-2,2-dimethylbut-3-yn-1-one] | 70.5 nM | 2.26 nM |
| Cc1nnc2nc(N3CCCc4c(C#CC(C)(C)C(=O)N5CCOC(C)(C)C5)cccc43)c3c(F)cccc3n12 [Example 70, 1-(2,2-dimethylmorpholino)-4-(1-(6-fluoro-1-methyl-[1,2,4]triazolo[4,3-a]quinazolin-5-yl)-1,2,3,4-tetrahydroquinolin-5-yl)-2,2-dimethylbut-3-yn-1-one] | 29.2 nM | 5.62 nM |
| Cc1nnc2nc(N3CCCc4c(C#CC(C)(C)c5ccccn5)cccc43)c3c(F)cccc3n12 [Example 71, 6-fluoro-1-methyl-5-(5-(3-methyl-3-(pyridin-2-yl)but-1-yn-1-yl)-3,4-dihydroquinolin-1(2H)-yl)-[1,2,4]triazolo[4,3-a]quinazoline] | 124 nM | 11.3 nM |

Second part, the compound after the results:

| IC50 (human DGKα) | EC50 [1] | SMILES |
| --- | --- | --- |
| 19.8 nM | 2.2 nM | Cc1cnc(C(C)(C)C#Cc2cccc3c2CCCN3c2nc3nnc(C)n3c3cccc(F)c23)o1 [Example 72, 2-(4-(1-(6-fluoro-1-methyl-[1,2,4]triazolo[4,3-a]quinazolin-5-yl)-1,2,3,4-tetrahydroquinolin-5-yl)-2-methylbut-3-yn-2-yl)-5-methyloxazole] |
| 61.3 nM | 10.8 nM | Cc1nnc2nc(N3CCCc4c(C#CC(C)(C)C(=O)O)cccc43)c3c(F)cccc3n12 [Example 73, 4-(1-(6-fluoro-1-methyl-[1,2,4]triazolo[4,3-a]quinazolin-5-yl)-1,2,3,4-tetrahydroquinolin-5-yl)-2,2-dimethylbut-3-ynoic Acid] |
| 6.1 nM | 1.95 nM | COc1ccc(C#Cc2cc(N(CC(F)F)c3nc4nnc(C)n4c4cccc(F)c34)ccn2)cn1 [Example 74, N-(2,2-difluoroethyl)-6-fluoro-N-(2-((6-methoxypyridin-3-yl)ethynyl)pyridin-4-yl)-1-methyl-[1,2,4]triazolo[4,3-a]quinazolin-5-amine] |
| 28.9 nM | 3.41 nM | COc1ccc(C#Cc2nccc3c2CCCN3c2nc3nnc(C)n3c3cccc(F)c23)cn1 [Example 75, 6-fluoro-5-(5-((6-methoxypyridin-3-yl)ethynyl)-3,4-dihydro-1,6-naphthyridin-1(2H)-yl)-1-methyl-[1,2,4]triazolo[4,3-a]quinazoline] |
| 13.4 nM | 8.01 nM | Cc1nccn1C(C)(C)C#Cc1cccc2c1CCCN2c1nc2nnc(C)n2c2cccc(F)c12 [Example 76, 6-fluoro-1-methyl-5-(5-(3-methyl-3-(2-methyl-1H-imidazol-1-yl)but-1-yn-1-yl)-3,4-dihydroquinolin-1(2H)-yl)-[1,2,4]triazolo[4,3-a]quinazoline] |
| 15.5 nM | 1.94 nM | Cc1nc(C(C)(C)C#Cc2cccc3c2CCCN3c2nc3nnc(C)n3c3cccc(F)c23)oc1C [Example 77, 2-(4-(1-(6-fluoro-1-methyl-[1,2,4]triazolo[4,3-a]quinazolin-5-yl)-1,2,3,4-tetrahydroquinolin-5-yl)-2-methylbut-3-yn-2-yl)-4,5-dimethyloxazole] |
